“Also recorded” adds a separate entry of the source.
Assays:
B and NK cells = experiment: Interaction propensity of B and NK cells in combined bone marrow and PBMCs of B-ALL patients; type: cell-based, human; settings: B-ALL bone marrow plus PBMCs, vs PBS control
Description: (§1) Bone marrow of a patients with B-cell acute lymphoblastic leukemia (B-ALL) and PBMCs of the same patient are combined, treated with Rituximab or PBS control and the interaction propensity of B and NK cells in non-adherent cell monolayers obtained from treated and untreated combined sample according to WO 2016/046346 determined using the present invention.

CD11C and CD3 cells = experiment: Interaction propensity of CD11C and CD3 cells in PBMC monolayers of a healthy donor; type: cell-based, human; settings: PBMCs of a healthy donor, various concentrations, vs DMSO control
Experimental: FIG. 10: Measured interaction propensity expressed as Log 2 interaction score of CD11c and CD3 cells after treatment with the small molecule Crizotinib.
PBMCs of a healthy donor are treated with Crizotinib or DMSO control at various concentrations and the interaction propensity of CD11C and CD3 cells in non adherent cell monolayers obtained from treated and untreated combined sample according to WO 2016/046346 determined using the present invention.

[1] = test system: B (CD19 positive) and T cells (CD3 positive); experiment: Interaction propensity of B (CD19 positive) and T cells (CD3 positive) in PBMC monolayers; type: cell-based, human; settings: PBMC monolayers (healthy blood), 48 h, over PBS control (0)
Description: FIG. 9: Measured interaction propensity expressed as Log 2 interaction score of CD3 cells to […] with increasing concentrations of the clinically approved biologic drug Blinatumomab, with media alone as a control (0). Blinatumomab has a known mechanism of action bringing together cytotoxic or other T-cells and cancerous B-cells, through this interaction, Inducing cancer cell killing and thus reducing the cancerous burden.
(§2) PBMC monolayers were provided as described in WO 2016/046346, treated with blinatumomab or PBS control (0) for 48 h, fixed, stained with fluorescently labeled CD3 and CD19 antibodies and imaged using automated confocal microscopy. Subsequently, the interaction propensity of B (CD19 positive) and T cells (CD3 positive) in the provided non-adherent cell monolayers was determined using the present invention.

[2] = test system: CD10+ positive target cells and CD3+ T-cells; experiment: Interaction of CD10 positive tumour cells with T-cells in pleural effusion/PBMC monolayers of a B-cell lymphoma patient; type: cell-based, human
Experimental: FIG. 12: interactions between CD10+ positive target cells, which according to pathology review comprised the tumour cells, and CD3+ T-cells were measured in a sample of a B-cell lymphoma patient in response to blinatumomab treatment for 24 h using the methods of the present invention and quantified as an interaction score. […] The different graphs show different amounts of cells isolated from pleural effusion (PE) of the patient mixed with different amounts of matched PBMCs from the same patient.
Pleural effusion from a patient with a B-cell lymphoma was collected by gradient density centrifugation. This pleural effusion consisted of a mixture of cell types found in bone marrow and PBMCs having migrated to the pleural cavity with concomitant fluid build-up and contained cancer as well as healthy cells. A matched sample of blood was also purified over Lymphoprep gradient. Cells obtained from the pleural effusion were titrated against cells from the matched PBMC samples and monolayers prepared according to WO2016/046346. Monolayers were treated with different concentrations of blinatumomab and the interaction of tumour cell populations previously determined to be CD10 positive by a pathologist with effector T-cells determined using the methods described in the present invention.

[3] = test system: B (CD19 positive) and NK cells (CD58 positive); experiment: Interaction propensity of B (CD19 positive) and NK cells in PBMC monolayers; type: cell-based, human; settings: 48 h, over PBS control (0)
Description: FIG. 11: Measured interaction propensity expressed as Log 2 interaction score of CD19 cells to CD56 cells with increasing concentrations of the clinically approved biologic drug Rituxidmab, with media alone as a control (0). Rituximab has a known mechanism of action bringing together NK-cells and cancerous B-cells, and through this interaction inducing cancer, reducing the cancerous burden.
as §2, with “rituximab” for “blinatumomab”, “CD56” for “CD3”, “NK” for “T”, “([…]” for “(CD3”

B and T cells = experiment: Interaction propensity of B and T cells in combined bone marrow and PBMCs of B-ALL patients; type: cell-based, human; settings: B-ALL bone marrow plus PBMCs, vs PBS control
Description: as §1, with “blinatumomab” for “Rituximab”, “T” for “NK”

B-cell lymphoma = experiment: Clinical response of the B-cell lymphoma patient to treatment; type: in vivo, human; settings: one B-cell lymphoma patient given the drug
[4] = patients not responding clinically
[5] = patients responding to the drug

## Rituximab: anti-CD20 antibody that links B and NK cells, inducing NK cells to kill B cells
B and NK cells; [4]
  interaction propensity between B and NK cells: do not exhibit this increase
B and NK cells; [5]
  interaction propensity between B and NK cells: increase

## C[C@@H](Oc1cc(-c2cnn(C3CCNCC3)c2)cnc1N)c1c(Cl)ccc(F)c1Cl [Crizotinib]
CD11C and CD3 cells
  interaction of DCs and T-cells as indicated by the interaction score: increase

## blinatumomab: bispecific antibody in BITE format that cross links B and T cells inducing T cells to kill B cells
[1]
  interaction propensity between B and T cells: increases
[1]; listed as blinatomumab
  interaction propensity between B and T cells: increase
[2]; B-cell lymphoma patient sample, ex vivo treatment
  fraction of tumour B-cells: did not change significantly
[2]; B-cell lymphoma patient, pleural effusion cells mixed with matched PBMCs, different concentrations, 24 h
  interaction of CD10 positive tumour cells with effector T-cells (interaction score): this was not the case for this patient; also recorded: no such interaction change was observed
[3]
  interaction propensity between B and NK cells: increase
B and T cells; [4]
  interaction propensity between B and T cells: do not exhibit this increase
B and T cells; [5]
  interaction propensity between B and T cells: increase
B-cell lymphoma
  clinical response of the patient: not to respond; also recorded: transient and weak response
